# Test results reported in US12310938B2, “Compositions and methods for weight loss maintenance” (priority 2017, dated 2025).
# Entries after “also recorded” stand apart in the source; their conditions may differ.
# Assays:
# [1] = Study 4: chronic feeding trial, 15 weeks; assay type: in vivo, Sprague Dawley Rats; details: rats; for bodyweight (prevention of weight gain, maintaining a lower weight): in food, 25 g/kg/d, 15 weeks, compared to standard diet, BHB-S, S-MCT
# Text: FIG. 3 depicts results of a chronic feeding trial in rats. SD: standard rodent chow (fed ad libitum); LKE: low-dose R,S 1,3-butanediol diacetoacetate (approx. 5 g/kg/day in food); HKE: high-dose R,S 1,3-butanediol diacetoacetate (approx. 25 g/kg/day in food); BHB-S: beta-hydroxybutyrate salt (approx. 25 g/kg/day in food); S-MCT: 1:1 beta-hydroxybutyrate salt: medium chain triglyceride oil (approx. 25 g/kg/day).
# [2] = Study 5: weight loss to 20% with ketogenic agents vs caloric restriction, then return to ad libitum standard diet (weight loss maintenance); assay type: in vivo; details: C57BL/6J; for food efficiency during weight loss maintenance (bodyweight regain proportional to calories consumed, FIG. 6): after cessation of agent, ad libitum SD, compared to caloric restriction and butanediol; for weight loss as a ratio to caloric intake/day (FIG. 5B): compared to BHB, BHB+MCT and CR groups; for weight loss as ratio to kcal of ketogenic agent per total daily intake (FIGS. 4A-4B): compared to butanediol, BHB+MCT, BHB
# Text: FIGS. 4A-4B depict results of weight loss induced by various ketogenic agents against regular SD caloric restriction, illustrating the effectiveness of various ketogenic agents for inducing weight loss. Treatments: Beta-Hydroxybutyrate (BHB); Beta-Hydroxybutyrate+Medium Chain Triglycerides (BHB+MCT); Butanediol (BD); R,S 1,3-Butanediol Acetoacetate Diester (KE).
# FIGS. 5A-5B depict treatment timeline of weight loss study utilizing various ketogenic agents against SD caloric restriction, as well as evaluation of weight loss potency of each ketogenic agent. Treatments: Standard Diet ad-Libitum (SD-AL); Standard Diet Caloric Restriction (CR); Beta-Hydroxybutyrate (BHB); Beta-Hydroxybutyrate+Medium Chain Triglycerides (BHB+MCT); Butanediol (BD); R,S 1,3-Butanediol Acetoacetate Diester (KE). […] These reductions in bodyweight were at lower percentages of the ketogenic agent within the food. Additionally, KE animals reach target weight loss at much LOWER % of ketogenic agent integrated into the diet.
# FIG. 6 depicts food efficiency during weight loss maintenance by calculating bodyweight regain proportional to calories consumed. Treatments: Standard Diet ad-Libitum (SD-AL); Standard Diet Caloric Restriction (CR); Beta-Hydroxybutyrate (BHB); Beta-Hydroxybutyrate+Medium Chain Triglycerides (BHB+MCT); Butanediol (BD); R,S 1,3-Butanediol Acetoacetate Diester (KE).
# C57BL/6J animals were obtained. Prior to experimental initiation, animals were randomly assigned to one (1) of five (5) groups: Caloric Restriction with standard diet (SD), Beta-hydroxybutyrate with SD (BHB), BHB+Medium Chain Triglycerides with SD (BHB+MCT), 1,3-Butanediol with SD (BD), and R,S 1,3 Butanediol Acetoacetate Diester with SD (KE). All animals initiated weight loss by either reducing the amount of calories consumed (CR group) or adding various % of ketogenic agents to induce weight loss. There was no difference in bodyweight across groups at baseline. All animals underwent weight loss until 20% weight loss was achieved. Upon reaching 20% weight loss, animals were switched back onto ad-libitum SD.
# Calories intake, bodyweight, and kcal of ketogenic agent in diet were recorded daily. In order to calculate the effectiveness of each agent to induce weight loss, weight loss as both grams and % weight loss, was compared as a ratio to the amount of kcal from each ketogenic agent compared to total kcals consumed a day.
# [3] = Study 1: chronic ad libitum feeding trial, 28 days; assay type: in vivo; details: VM/Dk mice, 10-20% by weight in standard chow; for bodyweight (weight loss and its maintenance): males and females, compared to SD or KD chow ad libitum
# Procedure: FIGS. 1A-1H depict results of a chronic ad libitum feeding trial of male and female mice (Standard Diet Male (n=7)=SD-M; Ketogenic Diet Male (n=7)=KD-M; R/S 1,3 Butanediol Acetoacetate Diester (n=4)=KE-M; Standard Diet Female (n=7)=SD-F; Ketogenic Diet Female (n=6)=KD-F; R/S 1,3 Butanediol Acetoacetate Diester Female (n=4)=KE-F).
# R,S 1,3-butanediol diacetoacetate (KE; 10-20% by weight mixed into standard chow) was administered to VM/Dk mice at for both males and females for 28 days. Standard rodent chow (SD) and ketogenic diet chow (KD) were administered to other VM/Dk mice ad libitum for comparison.
# [4] = Study 3: acute oral gavage trial, 7 days; assay type: in vivo, Sprague Dawley Rats; details: rats
# Procedure: FIGS. 2A-2B depict results of an acute gavage trial in rats.
# R,S 1,3 butanediol diacetoacetate (KE) was administered to Sprague Dawley Rats by oral gavage (at 5 mL/kg, which may translate to about 300-700 mg/kg for a human). Water, BHB-salt, or BHB-salt+MCT mixture was administered to other Sprague Dawley Rats for comparison. Animals were provided ad libitum access to standard rodent chow.
# [5] = agent in standard diet until 20% weight loss
Molecule,Approximate caloric intake compared to controls following adaptation to diet (weeks 13-15) ([1]; approx. 25 g/kg/day in food) [% kcal],"food efficiency during weight loss maintenance (bodyweight regain proportional to calories consumed, FIG. 6) [2]","food efficiency during weight loss maintenance (bodyweight regain proportional to calories consumed, FIG. 6) ([2]; listed as BHB)",weight loss as a ratio to caloric intake/day (FIG. 5B) [2],white adipose tissue ([3]; compared to SD or KD),bodyweight (weight loss and its maintenance) [3],bodyweight (weight loss and its maintenance) ([3]; listed as ketone diester),"bodyweight (prevention of weight gain, maintaining a lower weight) [1]","bodyweight (prevention of weight gain, maintaining a lower weight) ([1]; listed as R,S 1,3 butanediol diacetoacetate)","Approximate caloric intake compared to controls following adaptation to diet (weeks 13-15) ([1]; low dose, approx. 5 g/kg/day in food)","food efficiency during weight loss maintenance (bodyweight regain proportional to calories consumed, FIG. 6) ([2]; listed as R,S 1,3-butanediol diacetoacetate)","speed of bodyweight reduction and % of agent in the diet needed (FIG. 5A) [2, 5]","weight loss as ratio to kcal of ketogenic agent per total daily intake (FIGS. 4A-4B) [2, 5]","weight loss as ratio to kcal of ketogenic agent per total daily intake (FIGS. 4A-4B) ([2]; agent in standard diet until 20% weight loss, listed as R,S 1,3 Butanediol Acetoacetate diester)","bodyweight (prevention of weight gain, maintaining a lower weight) ([4]; gavage 5 g/kg once daily (5 mL/kg), ad libitum standard chow, compared to water, BHB-S, S-MCT, p<0.01)","calorie intake (self-restriction) ([4]; gavage once daily, ad libitum access to standard rodent chow)"
"beta-hydroxybutyrate salt [BHB-S, reference compound]",~−25,help contribute to maintenance of weight loss after cessation of weight loss intervention by reducing food efficiency,more effective at inducing inefficiencies in kcal consumed; also recorded: had lingering effects on food efficiency and weight loss maintenance; also recorded: helped maintain weight loss post cessation of agent administration,could be explained by caloric restriction alone,–,–,–,–,–,–,–,–,–,–,–,–
"CC(=O)CC(=O)OCCC(C)OC(=O)CC(C)=O (stereo not shown) [KE, R,S 1,3-butanediol diacetoacetate]",~−7,more effective at inducing inefficiencies in kcal consumed; also recorded: had lingering effects on food efficiency and weight loss maintenance,–,significantly more potent at inducing weight loss when divided by total caloric intake,induce reductions in white adipose tissue,induced and maintained long-term weight loss,lost significantly more bodyweight,more effective than BHB-S or S-MCT at preventing weight gain and maintaining a lower weight,significantly lower bodyweight,~+10% kcal,help contribute to maintenance of weight loss after cessation of weight loss intervention by reducing food efficiency,induced a quicker reduction in bodyweight; also recorded: induces more rapid weight loss,superior per kcal used at inducing weight loss,superior weight loss agent per total average daily intake,"more effective than BHB-S, S-MCT, or Control at preventing weight gain and maintaining a lower weight; also recorded: significantly lower bodyweight",self-restricted calories
